{
  "source": "patent US20070117770A1",
  "about": "“Human ribosomal DNA (rDNA) and ribosomal RNA (rRNA) nucleic acids and uses thereof” (Cylene Pharmaceuticals, Inc., priority 2005, published 2007)",
  "experiment_in_all_cases": "Protein kinase inhibition assay",
  "key": {"[1]": {"biological_target": "NEK6(h) (Homo sapiens, UniProt Q9HC98)", "sequence (Q9HC98 whole entry)": "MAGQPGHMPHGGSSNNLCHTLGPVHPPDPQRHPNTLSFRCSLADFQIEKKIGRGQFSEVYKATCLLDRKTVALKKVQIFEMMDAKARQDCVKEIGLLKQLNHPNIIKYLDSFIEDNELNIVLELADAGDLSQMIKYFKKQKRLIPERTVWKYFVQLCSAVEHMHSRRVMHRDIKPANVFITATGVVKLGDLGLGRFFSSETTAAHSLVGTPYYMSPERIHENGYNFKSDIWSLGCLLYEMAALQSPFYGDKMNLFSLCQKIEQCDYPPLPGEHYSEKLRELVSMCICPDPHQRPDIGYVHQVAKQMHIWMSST", "assay_type": "biochemical", "settings": "read-out: percent residual activity of NEK6(h)", "method": "(§1) Certain compounds were tested for activity in protein kinase inhibition assays. All substrates were dissolved and diluted to working stocks in de-ionized water, apart from histone H1 (10× working stock in 20 mM MOPS pH 7.0), PDKtide (10× working stock in 50 mM Tris pH 7.0) ATF2 (which is typically stored at a 20× working stock in 50 mM Tris pH 7.5, 150 mM NaCl, 0.1 mM EGTA, 0.03% Brij-35, 50% glycerol, 1 mM benzamidine, 0.2 mM PMSF and 0.1% R-mercaptoethanol), KKLNRTLSFAEPG (SEQ ID NO:203) and RRRLSFAEPG (SEQ ID NO:204) (50 mM HEPES pH 7.4) and GGEEEEYFELVKKKK (SEQ ID NO:205) (20 mM MOPS pH 7.0). All kinases were pre-diluted to a 10× working concentration prior to addition into the assay. The composition of the dilution buffer for each kinase is detailed below.\n(§2) In a final reaction volume of 25 μl, NEK6 (h) (5-10 mU) is incubated with 8 mM MOPS pH 7.0, 0.2 mM EDTA, 300 μM FLAKSFGSPNRAYKK (SEQ ID NO:221), 10 mM MgAcetate and [gamma-33P-ATP] (specific activity approx. 500 cpm/pmol, concentration as required). The reaction is initiated by the addition of the MgATP mix. After incubation for 40 minutes at room temperature, the reaction is stopped by the addition of 5 μl of a 3% phosphoric acid solution. 10 μl of the reaction is then spotted onto a P30 filtermat and washed three times for 5 minutes in 75 mM phosphoric acid and once in methanol prior to drying and scintillation counting."}, "[2]": {"biological_target": "PKCθ(h) (Homo sapiens, UniProt Q04759)", "sequence (Q04759 whole entry)": "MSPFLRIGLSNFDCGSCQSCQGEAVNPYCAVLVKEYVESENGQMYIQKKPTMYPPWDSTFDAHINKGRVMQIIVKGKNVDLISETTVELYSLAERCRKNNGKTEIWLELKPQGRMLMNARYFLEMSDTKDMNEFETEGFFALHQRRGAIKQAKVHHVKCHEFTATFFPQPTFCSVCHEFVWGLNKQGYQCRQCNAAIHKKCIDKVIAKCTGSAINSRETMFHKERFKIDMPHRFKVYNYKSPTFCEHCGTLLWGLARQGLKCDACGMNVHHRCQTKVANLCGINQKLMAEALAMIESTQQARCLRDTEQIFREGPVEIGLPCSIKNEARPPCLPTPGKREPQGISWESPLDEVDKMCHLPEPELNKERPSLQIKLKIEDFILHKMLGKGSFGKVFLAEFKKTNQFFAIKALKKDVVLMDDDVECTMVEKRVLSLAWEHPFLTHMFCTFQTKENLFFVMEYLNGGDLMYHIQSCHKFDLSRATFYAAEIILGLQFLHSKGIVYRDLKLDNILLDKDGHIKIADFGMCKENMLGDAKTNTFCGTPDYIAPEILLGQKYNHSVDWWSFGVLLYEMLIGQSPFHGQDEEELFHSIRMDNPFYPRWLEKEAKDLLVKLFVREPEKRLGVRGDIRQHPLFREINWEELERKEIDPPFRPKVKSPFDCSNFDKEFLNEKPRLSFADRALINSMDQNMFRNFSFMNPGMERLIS", "assay_type": "biochemical", "settings": "read-out: percent residual activity of PKCθ(h)", "method": "as §1\nas §2, with “PKCθ” for “NEK6”, “0.1 mg/ml histone H1,” for “300 μM FLAKSFGSPNRAYKK (SEQ ID NO:221),”"}, "[3]": {"biological_target": "Ros(h) (Homo sapiens, UniProt P08922)", "sequence (P08922 28-2347)": "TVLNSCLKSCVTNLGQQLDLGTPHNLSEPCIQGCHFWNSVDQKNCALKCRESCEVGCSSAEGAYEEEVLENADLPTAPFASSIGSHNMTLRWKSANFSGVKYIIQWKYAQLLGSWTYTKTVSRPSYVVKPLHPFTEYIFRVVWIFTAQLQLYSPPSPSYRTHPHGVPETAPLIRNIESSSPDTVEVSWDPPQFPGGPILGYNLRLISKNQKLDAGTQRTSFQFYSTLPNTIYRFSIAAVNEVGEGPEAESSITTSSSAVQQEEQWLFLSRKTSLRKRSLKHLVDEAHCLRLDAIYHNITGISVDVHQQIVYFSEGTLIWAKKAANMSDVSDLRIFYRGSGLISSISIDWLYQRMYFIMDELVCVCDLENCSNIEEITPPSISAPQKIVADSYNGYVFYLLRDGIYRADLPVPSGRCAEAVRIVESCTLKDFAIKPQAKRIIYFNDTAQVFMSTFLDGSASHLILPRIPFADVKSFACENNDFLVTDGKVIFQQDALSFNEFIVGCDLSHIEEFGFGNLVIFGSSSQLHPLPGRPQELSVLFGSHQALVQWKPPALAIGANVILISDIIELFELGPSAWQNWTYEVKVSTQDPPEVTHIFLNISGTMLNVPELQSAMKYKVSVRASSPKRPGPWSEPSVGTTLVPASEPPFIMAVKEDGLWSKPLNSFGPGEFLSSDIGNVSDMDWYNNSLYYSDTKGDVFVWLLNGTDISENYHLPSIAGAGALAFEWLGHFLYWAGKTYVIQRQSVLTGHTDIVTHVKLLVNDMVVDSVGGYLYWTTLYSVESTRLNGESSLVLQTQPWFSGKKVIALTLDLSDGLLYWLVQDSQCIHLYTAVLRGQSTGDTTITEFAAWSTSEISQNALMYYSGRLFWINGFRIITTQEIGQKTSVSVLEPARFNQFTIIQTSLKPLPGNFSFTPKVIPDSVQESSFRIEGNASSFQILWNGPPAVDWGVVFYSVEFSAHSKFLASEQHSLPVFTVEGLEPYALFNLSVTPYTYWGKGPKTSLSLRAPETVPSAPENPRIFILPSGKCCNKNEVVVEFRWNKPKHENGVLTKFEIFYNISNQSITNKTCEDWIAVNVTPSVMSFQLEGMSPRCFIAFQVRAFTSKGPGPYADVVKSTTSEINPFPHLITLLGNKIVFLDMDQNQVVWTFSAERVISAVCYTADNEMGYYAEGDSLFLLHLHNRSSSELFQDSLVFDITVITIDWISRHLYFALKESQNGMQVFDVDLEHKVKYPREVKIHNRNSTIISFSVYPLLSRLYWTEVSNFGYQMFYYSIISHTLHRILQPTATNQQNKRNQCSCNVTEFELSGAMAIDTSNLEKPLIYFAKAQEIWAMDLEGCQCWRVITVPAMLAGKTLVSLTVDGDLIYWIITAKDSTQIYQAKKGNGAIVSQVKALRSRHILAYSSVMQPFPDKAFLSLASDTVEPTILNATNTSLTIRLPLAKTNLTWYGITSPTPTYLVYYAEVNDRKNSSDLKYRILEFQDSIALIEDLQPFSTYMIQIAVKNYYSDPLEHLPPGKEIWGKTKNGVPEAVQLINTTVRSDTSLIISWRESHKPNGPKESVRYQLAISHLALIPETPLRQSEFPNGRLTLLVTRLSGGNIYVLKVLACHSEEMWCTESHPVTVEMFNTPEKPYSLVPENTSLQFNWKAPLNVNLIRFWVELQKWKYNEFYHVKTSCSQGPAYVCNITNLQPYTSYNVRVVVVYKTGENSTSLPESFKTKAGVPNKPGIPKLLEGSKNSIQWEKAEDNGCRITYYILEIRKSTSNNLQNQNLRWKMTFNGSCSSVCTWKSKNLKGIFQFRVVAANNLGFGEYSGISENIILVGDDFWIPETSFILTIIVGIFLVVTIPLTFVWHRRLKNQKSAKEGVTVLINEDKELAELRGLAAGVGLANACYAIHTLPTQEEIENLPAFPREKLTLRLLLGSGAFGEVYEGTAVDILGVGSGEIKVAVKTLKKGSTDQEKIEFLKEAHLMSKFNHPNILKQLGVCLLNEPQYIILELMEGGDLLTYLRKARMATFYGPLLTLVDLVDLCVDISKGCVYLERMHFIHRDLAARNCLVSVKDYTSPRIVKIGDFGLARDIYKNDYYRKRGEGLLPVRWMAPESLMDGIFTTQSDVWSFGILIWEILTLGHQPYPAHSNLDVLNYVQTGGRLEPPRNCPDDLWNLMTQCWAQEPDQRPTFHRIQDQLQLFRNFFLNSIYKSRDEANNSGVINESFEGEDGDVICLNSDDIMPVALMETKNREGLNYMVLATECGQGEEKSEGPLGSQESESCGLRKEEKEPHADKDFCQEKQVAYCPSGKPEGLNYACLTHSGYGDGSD", "assay_type": "biochemical", "settings": "read-out: percent residual activity of Ros(h)", "method": "as §1\n(§3) In a final reaction volume of 25 μl, Ros (h) (5-10 mU) is incubated with 8 mM MOPS pH 7.0, 0.2 mM EDTA, 10 mM MnCl2, 250 μM KKKSPGEYVNIEFG (SEQ ID NO:207), 10 mM MgAcetate and [gamma-33P-ATP] (specific activity approx. 500 cpm/pmol, concentration as required). The reaction is initiated by the addition of the MgATP mix. After incubation for 40 minutes at room temperature, the reaction is stopped by the addition of 5 μl of a 3% phosphoric acid solution. […]"}, "[4]": {"tested_on": "AMPK(r)", "assay_type": "biochemical, rat", "settings": "2.5 μM", "method": "as §1\n(§4) In a final reaction volume of 25 μl, AMPK (r) (5-10 mU) is incubated with 32 mM HEPES pH 7.4, 0.65 mM DTT, 0.012% Brij-35, 200 μM AMP, 200 μM AMARAASAAALARRR (SEQ ID NO:208), 10 mM MgAcetate and [gamma-33P-ATP] (specific activity approx. 500 cpm/pmol, concentration as required). The reaction is initiated by the addition of the MgATP mix. After incubation for 40 minutes at room temperature, the reaction is stopped by the addition of 5 μl of a 3% phosphoric acid solution. […]"}, "[5]": {"biological_target": "Lyn(h) (Homo sapiens, UniProt P07948)", "sequence (P07948 whole entry)": "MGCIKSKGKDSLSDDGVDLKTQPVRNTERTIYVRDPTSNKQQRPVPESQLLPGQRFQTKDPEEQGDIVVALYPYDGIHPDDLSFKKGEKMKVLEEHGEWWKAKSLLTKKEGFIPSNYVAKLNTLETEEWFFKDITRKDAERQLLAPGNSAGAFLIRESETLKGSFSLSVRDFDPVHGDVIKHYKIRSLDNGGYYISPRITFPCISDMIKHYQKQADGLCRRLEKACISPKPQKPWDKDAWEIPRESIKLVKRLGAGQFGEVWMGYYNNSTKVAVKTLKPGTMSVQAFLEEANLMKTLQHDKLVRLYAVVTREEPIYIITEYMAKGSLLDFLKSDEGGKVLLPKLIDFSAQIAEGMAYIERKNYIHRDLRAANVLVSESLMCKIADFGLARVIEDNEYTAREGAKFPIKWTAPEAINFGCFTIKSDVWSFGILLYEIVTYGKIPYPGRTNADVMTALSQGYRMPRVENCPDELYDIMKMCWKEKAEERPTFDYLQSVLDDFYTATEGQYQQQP", "assay_type": "biochemical", "settings": "read-out: percent residual activity of Lyn(h)", "method": "as §1\nas §3, with “Lyn” for “Ros”, “50” for “8”, “Tris” for “MOPS”, “7.5, 0.1” for “7.0, 0.2”, “EGTA, 0.1” for “EDTA, 10”, “Na3VO4, 0.1% R-mercaptoethanol, 0.1 mg/ml poly(Glu, Tyr) 4:1,” for “MnCl2, 250 μM KKKSPGEYVNIEFG (SEQ ID NO:207),”"}, "[6]": {"biological_target": "PKCη(h) (Homo sapiens, UniProt P24723)", "sequence (P24723 whole entry)": "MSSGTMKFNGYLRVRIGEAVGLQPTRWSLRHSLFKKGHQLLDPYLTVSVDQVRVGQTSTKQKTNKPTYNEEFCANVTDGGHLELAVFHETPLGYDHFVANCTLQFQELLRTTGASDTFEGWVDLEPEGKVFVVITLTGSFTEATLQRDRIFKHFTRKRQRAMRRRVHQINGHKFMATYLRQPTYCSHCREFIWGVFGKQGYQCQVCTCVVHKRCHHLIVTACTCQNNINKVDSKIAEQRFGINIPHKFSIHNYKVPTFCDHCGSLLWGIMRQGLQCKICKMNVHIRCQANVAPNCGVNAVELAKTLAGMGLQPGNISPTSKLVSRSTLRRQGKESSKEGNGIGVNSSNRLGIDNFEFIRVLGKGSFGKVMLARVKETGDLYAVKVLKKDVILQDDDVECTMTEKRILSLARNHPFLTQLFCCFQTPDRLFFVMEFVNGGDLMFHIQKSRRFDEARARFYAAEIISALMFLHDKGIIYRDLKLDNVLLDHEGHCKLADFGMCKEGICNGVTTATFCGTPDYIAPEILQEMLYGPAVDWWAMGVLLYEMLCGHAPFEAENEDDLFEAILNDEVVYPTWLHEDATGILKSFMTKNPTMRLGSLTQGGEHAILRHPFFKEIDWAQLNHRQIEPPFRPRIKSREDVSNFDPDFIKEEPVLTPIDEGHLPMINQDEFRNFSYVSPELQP", "assay_type": "biochemical", "settings": "read-out: percent residual activity of PKCη(h)", "method": "as §1\nas §4, with “PKCη (h)” for “AMPK (r)”, “20” for “32”, “0.03% Triton X-100, 0.1” for “0.65”, “CaCl2, 0.1 mg/ml phosphatidylserine, 10 μg/ml diacylglycerol, 50” for “DTT, 0.012% Brij-35, 200”, “ERMRPRKRQGSVRRRV” for “AMP, 200 μM AMARAASAAALARRR”, “NO:234),” for “NO:208),”"}},
  "data": [
    {"compound": "CN1CCCC1CCNC(=O)c1cn2c3c(c(N4CCC(c5cnccn5)C4)c(F)cc3c1=O)Oc1cc3ccccc3cc1-2", "note": "(stereo not drawn) [Compound A-1]", "values": [
      {"measurement": "remaining activity at 2.5 µM", "setting": "[1]", "value": 78, "unit": "%"},
      {"measurement": "remaining activity at 2.5 µM", "setting": "[2]", "value": 91, "unit": "%"},
      {"measurement": "remaining activity at 2.5 µM", "setting": "[3]", "value": 115, "unit": "%"},
      {"measurement": "percent residual activity of AMPK(r)", "setting": "[4]", "value": 82, "unit": "%"},
      {"measurement": "remaining activity at 2.5 µM", "setting": "[5]", "value": 110, "unit": "%"},
      {"measurement": "remaining activity at 2.5 µM", "setting": "[6]", "value": 80, "unit": "%"}
    ]},
    {"compound": "CC(=O)N1CCN(c2ccc3c(=O)c(C(=O)NCCN4CCCC4)c4n(C)c5ccccc5n4c3n2)CC1", "note": "[Compound B-1]", "values": [
      {"measurement": "remaining activity at 2.5 µM", "setting": "[1]", "value": 111, "unit": "%"},
      {"measurement": "remaining activity at 2.5 µM", "setting": "[2]", "value": 108, "unit": "%"},
      {"measurement": "remaining activity at 2.5 µM", "setting": "[3]", "value": 113, "unit": "%"},
      {"measurement": "percent residual activity of AMPK(r)", "setting": "[4]", "value": 95, "unit": "%"},
      {"measurement": "remaining activity at 2.5 µM", "setting": "[5]", "value": 122, "unit": "%"},
      {"measurement": "remaining activity at 2.5 µM", "setting": "[6]", "value": 80, "unit": "%"}
    ]}
  ]
}
